Reference: patent publication US20090118276A1, “THIENOPYRIMIDINES, THIENOPYRIDINES, AND PYRROLOPYRIMIDINES AS B-RAF INHIBITORS” (priority 2007, published 2009)

Molecular target: T1, Flag/GST-tagged recombinant human B-Raf (Homo sapiens, UniProt P15056)
T1 construct: Flag; GST; made in house; host or cells: Sf9 insect cells (B-Raf); E. coli (MEK1-GST)
Experiment: B-Raf Kinase to MEK1 ELISA
Type: biochemical
Method: B-Raf Kinase to MEK1 ELISA
B-Raf1 Kinase Assay Procedure: B-Raf-1 is used to phosphorylate GST-MEK1.
B-Raf Assay Stock Solutions:
1. Assay Dilution Buffer (ADB): 20 mM MOPS, pH 7.2, 25 mM β-glycerol phosphate, 5 mM EGTA, 1 mM sodium orthovanadate, 1 mM dithiothreitol, 0.01% Triton X-100.
2. Magnesium/ATP Cocktail: ADB solution (minus Triton X-100) plus 200 μM cold ATP and 40 mM magnesium chloride.
4. Active Kinase: Active B-Raf: used at 0.2 nM per assay point.
8. Anti pMEK Ab (Upstate)
9. Anti-rabbit Ab/Europium conjugate (Wallac)
1. Add 25 μl of ADB containing B-Raf and Mek per assay (i.e. per well of a 96 well plate)
2. Add 25 μl of 0.2 mM ATP and 40 mM magnesium chloride in Magnesium/ATP Cocktail.
3. Incubate for 45 minutes at RT with occasional shaking.
4. Transfer this mixture to an anti-GST Ab coated 96 well plate (Nunc Immunosorb plates coated o/n with a-GST. Plate freshly washed 3× with TBS-T before use.
5. Incubate o/n at 30° C. in cold room.
6. Wash 3× with TBST, add Anti-Phospho MEK1 (1:1000, dilution depends upon lot)
7. Incubate for 60 minutes at RT in a shaking incubator
8. Wash 3× with TBST, add Anti-rabbit Ab/Europium conjugate (Wallac) (1:500, dilution depends upon lot)
9. Incubate for 60 minutes at RT on a platform shaker.
10. Wash plate 3× with TBS-T
11. Add 100 μl of Wallac Delfia Enhancement Solution and shake for 10 minutes.
12. Read plates in Wallac Victor model Plate Reader.
13. Collect data analyze in Excel for single point and IC50 determinations.
The % inhibition was determined for each compound concentration.

T1 sequence (P15056 whole entry): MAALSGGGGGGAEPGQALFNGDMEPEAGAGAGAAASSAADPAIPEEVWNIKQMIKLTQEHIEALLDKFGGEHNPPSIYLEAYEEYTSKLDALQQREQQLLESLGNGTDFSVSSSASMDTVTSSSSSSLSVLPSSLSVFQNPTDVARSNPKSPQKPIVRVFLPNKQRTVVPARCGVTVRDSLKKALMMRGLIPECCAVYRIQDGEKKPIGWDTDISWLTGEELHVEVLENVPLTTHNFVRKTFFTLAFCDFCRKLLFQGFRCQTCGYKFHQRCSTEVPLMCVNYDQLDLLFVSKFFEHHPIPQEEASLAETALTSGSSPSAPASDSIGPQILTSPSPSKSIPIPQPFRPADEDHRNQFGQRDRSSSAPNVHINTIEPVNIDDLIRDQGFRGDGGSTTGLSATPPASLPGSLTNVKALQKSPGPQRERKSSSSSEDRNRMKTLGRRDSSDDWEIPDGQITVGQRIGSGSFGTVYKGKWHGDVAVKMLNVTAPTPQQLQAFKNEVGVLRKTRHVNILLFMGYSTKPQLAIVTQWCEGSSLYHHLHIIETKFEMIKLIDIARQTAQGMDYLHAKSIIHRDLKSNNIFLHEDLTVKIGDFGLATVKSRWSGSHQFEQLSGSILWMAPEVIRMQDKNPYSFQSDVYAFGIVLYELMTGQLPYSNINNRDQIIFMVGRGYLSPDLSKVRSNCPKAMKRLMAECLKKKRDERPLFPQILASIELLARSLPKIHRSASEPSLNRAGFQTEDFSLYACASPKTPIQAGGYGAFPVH

Row | IC50 [nM] | SMILES
1 | 432 | CN(C)Cc1ccc(-n2ccc3c(-c4cccc(NC(=O)c5cccc(C(F)(F)F)c5)c4)ncnc32)cc1 [Compound 111, N-[3-(7-{4-[(dimethylamino)methyl]phenyl}-7H-pyrrolo[2,3-d]pyrimidin-4-yl)phenyl]-3-(trifluoromethyl)benzamide]
2 | 191 | O=C(Nc1cccc(-c2ncnc3c2ccn3-c2ccc(CN3CCNCC3)cc2)c1)c1cccc(C(F)(F)F)c1 [Compound 112, N-(3-{7-[4-(piperazin-1-ylmethyl)phenyl]-7H-pyrrolo[2,3-d]pyrimidin-4-yl}phenyl)-3-(trifluoromethyl)benzamide]

Second part, the molecule before the results:

Row | SMILES | IC50 [nM]
3 | CN(C)c1ccc(-n2ccc3c(-c4cccc(NC(=O)c5cccc(C(F)(F)F)c5)c4)ncnc32)cc1 [Compound 107, N-(3-{7-[4-(dimethylamino)phenyl]-7H-pyrrolo[2,3-d]pyrimidin-4-yl}phenyl)-3-(trifluoromethyl)benzamide] | 6570
4 | O=C(Nc1cccc(-c2ncnc3c2cc(-c2ccncc2)n3CCN2CCCC2)c1)c1cccc(C(F)(F)F)c1 [Compound 108, N-{3-[6-pyridin-4-yl-7-(2-pyrrolidin-1-ylethyl)-7H-pyrrolo[2,3-d]pyrimidin-4-yl]phenyl}-3-(trifluoromethyl)benzamide] | 68.5
5 | CN(C)CCCn1c(-c2ccncc2)cc2c(-c3cccc(NC(=O)c4cccc(C(F)(F)F)c4)c3)ncnc21 [Compound 109, N-(3-{7-[3-(dimethylamino)propyl]-6-pyridin-4-yl-7H-pyrrolo[2,3-d]pyrimidin-4-yl}phenyl)-3-(trifluoromethyl)benzamide] | 66.5
